The values below come from ChEMBL document CHEMBL1201862, “PubChem BioAssay data set” (2004).

Some test systems named below: ACHN; BT-549; EKVX; HCT-116; HCT-15; HOP-62; IGROV-1; M14; MDA-MB-231; MOLT-4; NCI-H522; NCI/ADR-RES; OVCAR-3; OVCAR-4; OVCAR-5; PC-3; SNB-19; T47D; UACC-257; UO-31.
What all share (experiment): NCI-60 cell line screen, 48 h

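Tested at 5 concentrations; 48 h exposure; 96-well plates; endpoints linearly interpolated, else capped at highest concentration. GI50 = concentration required for 50% inhibition of growth.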 Active and inactive are the calls of the source. Rule as the data show it: active = GI50 up to about 1.1 µM and inactive = higher.

On to `CCc1c(O)cc(=O)oc1-c1ccc(OC)c(OC)c1`, for which the GI50 with ACHN was > 100 µM (inactive); in the experiment on BT-549, > 100 µM (inactive); with EKVX, > 100 µM (inactive); in the experiment with HCT-116 it was > 100 µM (inactive); in the experiment on HCT-15 it was over 100 µM; in the experiment on HOP-62 it was > 100 µM (inactive). The GI50 with IGROV-1 was > 100 µM (inactive); in the experiment with M14 it was > 100 µM (inactive); with MDA-MB-231, > 100 µM (inactive); in the experiment on MOLT-4, > 100 µM (inactive); in the experiment with NCI-H522, 64.1 µM (inactive); with NCI/ADR-RES, > 100 µM (inactive). The GI50 in the experiment on OVCAR-3, in the experiment with OVCAR-4, in the experiment with OVCAR-5, with PC-3, in the experiment on SNB-19 and in the experiment with T47D was > 100 µM (inactive) each time. For the same compound, the GI50 in the experiment on UACC-257 and in the experiment with UO-31 was > 100 µM (inactive) in each case.
For the compound `O=C(O)c1cnc2cc(OCc3ccccc3)ccc2c1O`, the GI50 is 18.5 µM (inactive) in the experiment with ACHN; 18.4 µM (inactive) in the experiment with BT-549; 22.8 µM (inactive) in the experiment on EKVX; 17.2 µM (inactive) in the experiment with HCT-116; 17.8 µM in the experiment with HCT-15; 20.7 µM (inactive) with HOP-62. Besides, the GI50 was 18.3 µM (inactive) in the experiment on IGROV-1; 17 µM (inactive) with M14; 20.6 µM (inactive) with MDA-MB-231; 31.2 µM (inactive) in the experiment with MOLT-4; 16.5 µM (inactive) with NCI-H522; 18.1 µM (inactive) with NCI/ADR-RES. Moreover, the GI50 in the experiment on OVCAR-3 was 20.7 µM (inactive); in the experiment on OVCAR-4 it was 16.6 µM (inactive); in the experiment with OVCAR-5, 27.3 µM (inactive); in the experiment on PC-3, 17.1 µM (inactive); in the experiment on SNB-19 it was 17.7 µM (inactive); in the experiment on T47D it was 17.8 µM (inactive). Moreover, the GI50 is 24 µM (inactive) with UACC-257 and 17.3 µM (inactive) in the experiment on UO-31.
Take `C[C@@H]1CCC([C@@H](C)[C@H]2CC[C@H]3[C@@H]4CC[C@H]5C[C@@H](O)CC[C@]5(C)[C@H]4CC[C@]23C)=NC1`: the GI50 in the experiment with ACHN was 14 µM (inactive); in the experiment with BT-549, 25.6 µM (inactive); in the experiment with EKVX it was 12.4 µM (inactive); in the experiment with HCT-116, 6.43 µM (inactive); with HCT-15, 2.76 µM; with HOP-62, 13.4 µM (inactive). Also, the GI50 with IGROV-1 is 4.71 µM (inactive); with M14 it was 4.73 µM (inactive); in the experiment on MDA-MB-231 it was 30 µM (inactive); in the experiment with MOLT-4, 13 µM (inactive); with NCI-H522, 3.96 µM (inactive); in the experiment with NCI/ADR-RES, 8.53 µM (inactive). Moreover, the GI50 was 20.4 µM (inactive) in the experiment on OVCAR-3; 7.46 µM (inactive) in the experiment on OVCAR-4; 24.4 µM (inactive) in the experiment on OVCAR-5; 10.1 µM (inactive) in the experiment on PC-3; 10.6 µM (inactive) in the experiment on SNB-19; 12.7 µM (inactive) with T47D. Further, the GI50 in the experiment with UACC-257 is 25.3 µM (inactive); in the experiment with UO-31, 10.4 µM (inactive).
With `COc1ccc2c(c1)CC[C@@H]1[C@@H]2CC[C@]2(C)/C(=N/OCCN3CCCCC3)CC[C@@H]12`, the GI50 in the experiment with ACHN was 8.81 µM (inactive); in the experiment with BT-549, 12.8 µM (inactive); with EKVX it was 8.32 µM (inactive); with HCT-116 it was 2.38 µM (inactive); with HCT-15, 2.03 µM; with HOP-62 it was 6.25 µM (inactive). Further, the GI50 with IGROV-1 was 1.95 µM (inactive); with M14 it was 2.42 µM (inactive); with MDA-MB-231, 8.41 µM (inactive); with MOLT-4, 3.06 µM (inactive); in the experiment on NCI-H522, 5.27 µM (inactive); with NCI/ADR-RES it was 10 µM (inactive). The GI50 in the experiment with OVCAR-3 is 3.69 µM (inactive); in the experiment on OVCAR-4 it was 12.2 µM (inactive); with OVCAR-5 it was 5.33 µM (inactive); in the experiment with PC-3, 4.74 µM (inactive); in the experiment with SNB-19, 7.45 µM (inactive); with T47D, 5.46 µM (inactive). For the same compound, the GI50 in the experiment on UACC-257 is 2.55 µM (inactive); in the experiment on UO-31, 3.19 µM (inactive).
Regarding `OC/C=C/[C@H](OCc1ccccc1)[C@H](/C=C/CO)OCc1ccccc1`, the GI50 with ACHN was 49.3 µM (inactive); in the experiment on BT-549 it was 59.2 µM (inactive); in the experiment with EKVX it was 47.6 µM (inactive); in the experiment with HCT-116, 35.1 µM (inactive); with HCT-15, 34.8 µM; with HOP-62, 49.7 µM (inactive). The GI50 with IGROV-1 was 42.5 µM (inactive); in the experiment with M14, 76.6 µM (inactive); with MDA-MB-231, 50.4 µM (inactive); in the experiment with MOLT-4 it was 13.7 µM (inactive); in the experiment on NCI-H522, 37.3 µM (inactive); with NCI/ADR-RES, 32.4 µM (inactive). Besides, the GI50 in the experiment with OVCAR-3 is 39.7 µM (inactive); in the experiment on OVCAR-4, 29.8 µM (inactive); in the experiment with OVCAR-5 it was > 100 µM (inactive); with PC-3, 32.3 µM (inactive); in the experiment with SNB-19, 31.2 µM (inactive); in the experiment with T47D, 23.7 µM (inactive). For the same compound, the GI50 in the experiment with UACC-257 is 75.2 µM (inactive); in the experiment with UO-31, 64.1 µM (inactive).
In the case of `COC(=O)c1ccccc1CC1Cc2ccc3c(c2C1=O)CCC3` (stereo not given), the GI50 is 41.5 µM (inactive) in the experiment with ACHN; 34.7 µM (inactive) in the experiment on BT-549; 25.6 µM (inactive) in the experiment with EKVX; 37.1 µM (inactive) with HCT-116; 50 µM with HCT-15; > 100 µM (inactive) with HOP-62. Further, the GI50 in the experiment with IGROV-1 was > 100 µM (inactive); in the experiment on M14, 39.5 µM (inactive); with MDA-MB-231, 46.2 µM (inactive); in the experiment with MOLT-4 it was 25.1 µM (inactive); in the experiment with NCI-H522 it was 22.1 µM (inactive); with NCI/ADR-RES it was 28.8 µM (inactive). Besides, the GI50 in the experiment with OVCAR-3 was > 100 µM (inactive); in the experiment on OVCAR-4, 29.9 µM (inactive); in the experiment with OVCAR-5 it was > 100 µM (inactive); in the experiment on PC-3, 22.5 µM (inactive); in the experiment on SNB-19, > 100 µM (inactive); with T47D it was 19.7 µM (inactive). The GI50 in the experiment with UACC-257 was 32.4 µM (inactive); in the experiment with UO-31, 49.4 µM (inactive).
Turning to `CC1=NN(C(=O)CC(=O)Nc2ccccc2Cl)C(=O)C1/N=N\c1ccc(S(=O)(=O)c2ccc(/N=N/C3C(=O)N(C(=O)CC(=O)Nc4ccccc4Cl)N=C3C)cc2)cc1` (stereo not given), the GI50 in the experiment with ACHN was > 100 µM (inactive); in the experiment on BT-549, > 100 µM (inactive); in the experiment with EKVX it was > 100 µM (inactive); with HCT-116, > 100 µM (inactive); in the experiment with HCT-15 it was over 100 µM; in the experiment on HOP-62, > 100 µM (inactive). The GI50 with IGROV-1 was > 100 µM (inactive); with M14 it was > 100 µM (inactive); in the experiment on MDA-MB-231 it was 30.5 µM (inactive); with MOLT-4, > 100 µM (inactive); in the experiment on NCI-H522, > 100 µM (inactive); in the experiment with NCI/ADR-RES, > 100 µM (inactive). The GI50 in the experiment with OVCAR-3, in the experiment with OVCAR-4, with OVCAR-5, in the experiment with PC-3, with SNB-19 and with T47D was > 100 µM (inactive) each time. Besides, the GI50 in the experiment with UACC-257 and in the experiment with UO-31 was > 100 µM (inactive) each time.
